Data taken from patent publication US8252752B2 (priority 2000, dated 2012).
Entries after “also recorded” stand apart in the source; their conditions may differ.

Tests used:
MPTP-lesioned mice = format: in vivo, C57BL/6 mice
Description: Experimental mice were lesioned with MPTP (i.e., 40 mg/kg, ip twice, 1 month).
METHODS: Rota-Rod performance measures the length of time each animal manages to maintain its balance on the rotating lucite rod. Prior to MPTP-esioning animals, the performance was conditioned in three training sessions. The general training and testing procedure was as follows: namely,
Animals were placed on a stationary rod for 30 sec to accustom the behavior and establish familiarity with the environment. During this time if an animal fell, it was placed back on the rod; Next, animals were conditioned (or tested) at a constant speed of 5 rpm for 90 sec.;
Any animal that failed a first test was re-tested two more times; Any animal that failed a third test at 5 rpm was removed from the experiment; Thirty-minutes (30 min) after the last 5 rpm trial, each animal was placed back on the rod the speed was increased to 10 rpm; The length of time that each animal was able to maintain balance on the rod was measured at the constant speed of 10 rpm, i.e., data collection.

6-OHDA-lesioned rats = system: 6-OHDA-lesioned rats
Description: The nigral dopamine depletion is induced by using unilateral injections of 6-OHDA directly into the nigrostriatal system (AP: −4.4 mm, ML: 1.1 mm, DV: 7.5 mm, AP: −4.0 mm, ML: 0.8 mm, DV: 7.8 mm).
METHODS for STUDY #2: The Rota-Count 8 unit is an eight channel rotational meter. The system utilizes a digital rotary encoder and each encoder is mounted in a small bowl with a cable attachment; thereby, rotations of rats are automatically recorded. 6-OHDA in 0.9% NaCl at a concentration of 0.2% (w/v)-8 μl injected into the nigrostriatum. To control for injection failures in the injections, only 6-OHDA-lesioned rats that rotated more than 5 cycles/min at 7 days post-injection were selected for experimental use.

human DAT = human DAT (Homo sapiens, UniProt Q01959)
Sequence of human DAT (Q01959 whole entry): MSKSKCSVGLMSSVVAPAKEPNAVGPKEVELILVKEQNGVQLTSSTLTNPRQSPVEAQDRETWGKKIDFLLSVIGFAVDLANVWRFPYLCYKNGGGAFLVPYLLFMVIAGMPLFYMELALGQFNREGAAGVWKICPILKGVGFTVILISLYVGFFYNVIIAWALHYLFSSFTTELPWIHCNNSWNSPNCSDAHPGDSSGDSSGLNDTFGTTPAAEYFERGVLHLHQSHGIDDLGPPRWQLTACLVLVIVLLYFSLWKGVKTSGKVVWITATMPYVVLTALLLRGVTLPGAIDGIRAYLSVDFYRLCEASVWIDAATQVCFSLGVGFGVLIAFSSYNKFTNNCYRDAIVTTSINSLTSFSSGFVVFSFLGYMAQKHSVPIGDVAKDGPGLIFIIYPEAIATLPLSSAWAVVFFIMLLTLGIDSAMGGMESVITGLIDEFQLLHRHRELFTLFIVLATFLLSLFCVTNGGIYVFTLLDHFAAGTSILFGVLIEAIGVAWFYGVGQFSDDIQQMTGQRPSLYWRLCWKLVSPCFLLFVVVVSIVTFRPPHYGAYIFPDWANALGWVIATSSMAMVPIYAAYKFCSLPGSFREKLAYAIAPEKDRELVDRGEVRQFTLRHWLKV
Description: To obtain differing levels of DAT expression, cells were transiently transfected) with plasmids containing a DAT cDNA insert (hDAT), or alternatively, control irrelevant cDNA insert (Negative Control, NC). After 48-72 hrs. culture, dopamine transport was measured in the transiently transfected hDAT-cells by incubation for 5 hrs. in the presence of ^3H-labeled dopamine (Positive Control, PC).

[1] = system: Tyrosine hydroxylase (TH); conditions: 20 mg/kg for two months vs NaCl
Nurr1 deficient mice = system: Nurr1 deficient mice
Description: Rota rod performance measurements were made on a weekly basis during an 8 week treatment period.
MATERIALS AND METHODS: RotaRod performance measurements (time that balance was maintained on the rod) were performed (as in Study #1), each week during 8 weeks of treatment.

Row | Compound | reduction of Rota-Rod mean time (MPTP-lesioned mice; after lesioning, 40 mg/kg ip twice) | apomorphine-induced rotation (6-OHDA-lesioned rats; 20 mg/kg, 4 weeks, p<0.05) | agonist effects (rotation triggered by the compound itself) (6-OHDA-lesioned rats; 80 mg/kg or 200 mg/kg) | competition of 3H-dopamine uptake (human DAT; hDAT-transfected cells, 5 hrs. incubation) | transportability at DAT (human DAT; summary of EXAMPLE 12) | amount of TH per neuron [1] | increase in number of neurons staining positively for TH ([1]; not statistically significant, n=6) | Rota-Rod performance times relative to NaCl-treated controls (MPTP-lesioned mice; mouse, in vivo) | onset of significant improvement in Rota-rod performance times (MPTP-lesioned mice; mouse, in vivo) | locomotor activity after two months of treatment (MPTP-lesioned mice; mouse, in vivo, ip, 20 mg/kg) | stability of Rota Rod performance during treatment (Nurr1 deficient mice; 20 mg/kg twice daily, 8 weeks) | improvement of Rota Rod performance relative to saline treated controls (Nurr1 deficient mice; 20 mg/kg twice daily, within two weeks of treatment) | Rota-Rod time compared with pretreatment performance times (Nurr1 deficient mice; 20 mg/kg, p<0.05) | time to return of Rota-Rod performance to pre-treatment values after cessation of treatment (Nurr1 deficient mice; after 8 weeks of treatment) [weeks] | Rota-Rod performance after cessation of treatment (washout) (Nurr1 deficient mice; after 8 weeks of treatment, p<0.05)
1 | CN1CC=C(c2ccccc2)CC1 [MPTP, 1,2,3,6-methyl-phenyl-tetrahydropyridine, reference compound] | over 65% | – | – | – | – | – | – | – | – | – | – | – | – | – | –
2 | Dopamine gluconamide [Compound #1] | – | significantly decreased apomorphine-induced rotation | did not trigger visible effects | Competition of ^3H-dopamine uptake was observed | transportable at DAT | qualitatively much higher | 20-30% | 8-9 fold | about the third week of treatment; also recorded: about the second week | recovered locomotor activity | remained stable during the course of the 8-week treatment study | about 2 fold | significant increase of Rota-Rod time within two weeks of treatment | ≤ 2 | degraded significantly within one week
